# Test results from patent US6642267B2, “Substituted 1,5-dihydropyrrol-2-one derivatives active as NMDA receptor antagonists for treatment of states of pain” (Gruenenthal GmbH, priority 1999, dated 2003).
# Assays:
# [1] = target: T1, glycine-binding site of the NMDA receptor channel (Rattus norvegicus, UniProt P35439); assay: Receptor binding study, displacement of (3H)-MDL 105.519 in rat brain membrane homogenates; settings: rat cortex and hippocampus membrane homogenate; (3H)-MDL 105.519 radioligand; Ki from IC50 by Cheng-Prusoff
# T1 construct: from tissue; host or cells: rat brain cortex and hippocampus membrane homogenate (male Wistar rats, Charles River)
# Method: The studies for determination of the affinity of the substituted 1,5-dihydropyrrol-2-one derivatives of the general formula I for the glycine-binding site of the NMDA receptor channel were carried out on brain membrane homogenates (homogenate of the cortex and hippocampus area from the brain of male rats, Wistar strain, Charles River, WIGA GmbH, Sulzbach, Germany) by the method of Baron B. M. et al, J. Pharmacol. Exp. Ter., vol. 279, pp. 62-68 (1996).
# Specifically, the cortex and hippocampus were exposed from freshly removed rat brains and homogenized in 5 mmol/l TRIS-acetate buffer, 0.32 mol/l sucrose pH 7.4 (10 ml/g fresh weight) with a Potter homogenizer (Braun, Melsungen, Germany, 10 plunger strokes at 500 revolutions per minute (rpm)), while cooling with ice, and the mixture was then centrifuged for 10 minutes at 1,000 g and 4° C. The first supernatant was collected and the sediment was homogenized again with 5 mmol/l TRIS-acetate buffer, 0.32 mol/l sucrose pH 7.4 (5 ml/g of original fresh weight of rat brain cortex and hippocampus) with the Potter homogenizer (10 plunger strokes at 500 rpm), while cooling with ice, and the mixture was centrifuged for 10 minutes at 1,000 g and 4° C. The resulting supernatant was combined with the supernatant from the first centrifugation and the mixture was centrifuged at 17,000 g for 20 minutes at 4° C. The supernatant after this centrifugation was discarded and the membrane sediment was taken up in 5 mmol/l TRIS-acetate buffer pH 8.0 (20 ml/g original fresh weight) and the mixture was homogenized with 10 plunger strokes at 500 rpm.
# The membrane homogenate was then incubated for 1 hour at 4° C. and centrifuged for 30 minutes at 50,000 g and 4° C. The supernatant was discarded and the centrifuge tube with the membrane sediment was closed with Parafilm and frozen for 24 hours at −20° C. On the following day the membrane sediment was thawed and taken up in ice-cold 5 mmol/l TRIS-acetate buffer, 0.1% saponin (weight/volume) pH 7.0 (10 ml/g original fresh weight) and the mixture was homogenized with 10 plunger strokes at 500 rpm and then centrifuged for 20 minutes at 50,000 g and 4° C. The resulting supernatant was discarded and the sediment was taken up in a small volume of 5 mmol/l TRIS-acetate buffer pH 7.0 (approx. 2 ml/g original fresh weight) and the mixture was homogenized again with 10 plunger strokes at 500 rpm. After the protein content had been determined, the membrane homogenate was adjusted to a protein concentration of 10 mg protein/ml with 5 mmol/l TRIS-acetate buffer pH 7.0 and frozen in aliquots until the analysis was carried out.
# For the receptor binding test, aliquots were thawed, diluted 1:10 with 5 mmol/l TRIS-acetate buffer pH 7.0 and homogenized with the Potter homogenizer with 10 plunger strokes at 500 rpm, while cooling with ice, and the mixture was centrifuged for 60 minutes at 55,000 g at 4° C. The supernatant was decanted and the membrane sediment was adjusted to a protein concentration of 1 mg/ml with ice-cold 50 mmol/l TRIS-acetate buffer pH 7.0 and the mixture was homogenized again with 10 plunger strokes at 500 rpm and kept in suspension while stirring on a magnetic stirrer in an ice-bath. In each case 100 μl of this membrane homogenate per 1 ml batch were employed in the receptor binding test (0.1 mg protein/ml in the final batch).
# In the binding test, 50 mmol/l TRIS-acetate buffer pH 7.0 were employed as the buffer and […] (^3H)-MDL 105.519 (Baron B. M. at al, J. Pharmacol. Exp. Ther., vol 279, pp. 62-68 (1996)) was employed as the radioactive ligand. The content of non-specific binding was determined in the presence of 1 mmol/l glycine.
# In further batches, the compounds according to the invention were added in concentration series and the displacement of the radioactive ligand from its specific binding to the glycine binding site of the NMDA receptor channel was determined. […]
# [2] = tested on: formalin-induced nociceptive reaction (licking and biting of the paw); assay: Formalin test in mice, second (late) phase; format: in vivo; settings: male NMRI mice
# Method: The studies for determination of the antinociceptive action of substituted 1,5-dihydropyrrol-2-one derivatives according to the invention were carried out in the formalin test in male albino mice (NMRI, 25-35 g, Iffa Credo, Belgium).
# In the formalin test, a distinction is made between the first (early) phase (0-15 min after formalin injection) and the second (late) phase (15-60 min after formalin injection) (D. Dubuisson et al, Pain 4, 161-174 (1977)). The early phase represents a model for acute pain, as a direct reaction to the formalin injection, while the late phase is regarded as a model for persistent (chronic) pain (T. J. Coderre et al, Pain, vol. 52, pp. 259-285 (1993).
# The compounds according to the invention were investigated in the second phase of the formalin test to obtain information on substance actions on chronic/inflammatory pain.
# By a single subcutaneous formalin injection (20 μl, 1% aqueous solution) into the dorsal side of the right hind paw of freely mobile test animals, a nociceptive reaction was induced, which manifests itself in significant licking and biting of the paw affected.
# For the investigation period in the second (late) phase of the formalin test, the nociceptive behaviour was recorded continuously by observing the animals. […] After injection of substances which have an antinociceptive action in the formalin test, the modes of behaviour described for the animals are reduced, and possibly even eliminated.
# In a manner corresponding to the substance tests, in which the animals received an injection of the test substance before formalin, the vehicle, i.e. solvent (e.g. 0.9% NaCl solution), was injected into the control animals before the administration of formalin. The behaviour of the animals after administration of the substance (10 mice per substance dosage) was compared with a control group (10 mice).
# On the basis of the quantification of the pain properties, the action of the substance in the formalin test was determined as a change from the control in per cent. The ED50 calculations were made by means of regression analysis. […]
Ki [1],melting point,SMILES,% change with respect to the control at 10 mg/kg [2]
70 µM,–,"NC1=C(N=O)C(=O)NC1=Cc1ccccc1 [Example 6, 4-Amino-5-benzylidene-3-nitroso-1,5-dihydropyrrol-2-one]",–
5 µM,218 °C,"O=C1NC(=Cc2ccccc2)C(NCc2ccccc2)=C1[N+](=O)[O-] [Example 9, 4-Benzylamino-5-benzylidene-3-nitro-1,5-dihydropyrrol-2-one]",–
–,–,"COC1=C(N=O)C(=O)NC1=Cc1ccccc1 [Example 2, 5-Benzylidene-4-methoxy-3-nitroso-1,5-dihydropyrrol-2-one]",36.3%
6 µM,> 260 °C,"NC1=C([N+](=O)[O-])C(=O)NC1=Cc1ccccc1 [Example 11, 4-Amino-5-benzylidene-3-nitro-1,5-dihydropyrrol-2-one]",–
60 µM,–,"CNC1=C(N=O)C(=O)NC1=Cc1ccccc1 [Example 5, 5-Benzylidene-4-methylamino-3-nitroso-1,5-dihydropyrrol-2-one]",–
72 µM,–,"O=NC1=C(Nc2ccccc2)C(=Cc2ccccc2)NC1=O [Example 4, 5-Benzylidene-3-nitroso-4-phenylamino-1,5-dihydropyrrol-2-one]",–
68 µM,–,"O=NC1=C(NCc2ccccc2)C(=Cc2ccccc2)NC1=O [Example 3, 4-Benzylamino-5-benzylidene-3-nitroso-1,5-dihydropyrrol-2-one]",47.6%
–,–,"O=NC1=C(O)C(=Cc2ccccc2)NC1=O [Example 1, 5-Benzylidene-4-hydroxy-3-nitroso-1,5-dihydro-pyrrol-2-one]",63.9%
9 µM,–,"O=C1NC(=Cc2ccccc2)C(Nc2ccccc2)=C1[N+](=O)[O-] [Example 8, 5-Benzylidene-3-nitro-4-phenylamino-1,5-dihydropyrrol-2-one]",–
3 µM,238 °C,"CNC1=C([N+](=O)[O-])C(=O)NC1=Cc1ccccc1 [Example 10, 5-Benzylidene-4-methylamino-3-nitro-1,5-dihydropyrrol-2-one]",–
